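Grown in 96-well plates, cells were treated for 48 hours with each compound at five concentrations. Insufficient inhibition: endpoint recorded as highest concentration tested. Definition used: TGI = concentration required for complete inhibition of growth.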
How the values were obtained:
Experiment in all cases: NCI anticancer screen, dose series, 48 h
[1] = test system: SF-539 CNS
[2] = test system: MDA-MB-435
[3] = test system: T-47D breast
[4] = test system: SK-MEL-5 melanoma
[5] = test system: UACC-62 melanoma
[6] = test system: HCC-2998 colon
[7] = test system: OVCAR-8 ovarian
[8] = test system: OVCAR-4 ovarian
[9] = test system: 786-0 renal
[10] = test system: SK-MEL-2 melanoma
[11] = test system: NCI-H23 lung
[12] = test system: NCI-H460 lung
[13] = test system: SK-OV-3 ovarian
[14] = test system: SNB-19 CNS
[15] = test system: RPMI-8226 leukemia
[16] = test system: NCI-H522 lung
[17] = test system: EKVX NSCLC
[18] = test system: COLO 205 colon
[19] = test system: SK-MEL-28 melanoma
[20] = test system: HT29 colon
[21] = test system: UO-31 renal
[22] = test system: CAKI-1 renal
[23] = test system: RXF 393 renal
[24] = test system: MOLT-4 leukemia
[25] = test system: KM12 colon
[26] = test system: K-562 leukemia
[27] = test system: HCT-15 colon
[28] = test system: SF-268 CNS
[29] = test system: M14 melanoma
[30] = test system: MDA-N
[31] = test system: SF-295 CNS
[32] = test system: HOP-62 NSCLC
[33] = test system: OVCAR-5 ovarian
[34] = test system: SW-620 colon
[35] = test system: PC-3 prostate
[36] = test system: LOX IMVI melanoma
[37] = test system: IGROV1 ovarian
[38] = test system: A498 renal
[39] = test system: NCI/ADR-RES ovarian
[40] = test system: HS 578T breast
[41] = test system: HOP-92 NSCLC
[42] = test system: CCRF-CEM leukemia
[43] = test system: MDA-MB-231 breast
[44] = test system: UACC-257 melanoma
[45] = test system: DU-145 prostate
[46] = test system: U251 CNS
[47] = test system: NCI-H226 lung
[48] = test system: BT-549 breast
[49] = test system: MCF7 breast
[50] = test system: ACHN renal
[51] = test system: A549 NSCLC
[52] = test system: SNB-75 CNS
[53] = test system: HCT-116 colon
[54] = test system: MALME-3M melanoma
[55] = test system: OVCAR-3 ovarian
[56] = test system: SR leukemia
[57] = test system: SN12C renal
[58] = test system: TK-10 renal
[59] = test system: HL-60(TB) leukemia

**Q.** Which results are given for `O=C1/C(=c2\c3ccccc3n3c(=O)c4ccccc4nc23)Nc2ccccc21`?
**A.** TGI [1]: > 100 µM; TGI [2]: 36.8 µM; TGI [3]: > 100 µM; TGI [4]: > 100 µM; TGI [5]: > 100 µM; TGI [6]: > 100 µM; TGI [7]: > 100 µM; TGI [8]: > 100 µM; TGI [9]: > 100 µM; TGI [10]: > 100 µM; TGI [11]: > 100 µM; TGI [12]: > 100 µM; TGI [13]: > 100 µM; TGI [14]: > 100 µM; TGI [15]: > 100 µM; TGI [16]: > 100 µM; TGI [17]: > 100 µM; TGI [18]: > 100 µM; TGI [19]: > 100 µM; TGI [20]: > 100 µM; TGI [21]: > 100 µM; TGI [22]: > 100 µM; TGI [23]: > 100 µM; TGI [24]: > 31.6 µM; TGI [25]: > 100 µM; TGI [26]: > 100 µM; TGI [27]: > 100 µM; TGI [28]: > 100 µM; TGI [29]: > 100 µM; TGI [30]: 33.6 µM; TGI [31]: > 100 µM; TGI [32]: > 100 µM; TGI [33]: > 100 µM; TGI [34]: > 100 µM; TGI [35]: > 100 µM; TGI [36]: > 100 µM; TGI [37]: > 100 µM; TGI [38]: > 100 µM; TGI [39]: > 100 µM; TGI [40]: > 85.7 µM; TGI [41]: > 100 µM; TGI [42]: > 100 µM; TGI [43]: > 100 µM; TGI [44]: > 100 µM; TGI [45]: > 100 µM; TGI [46]: > 100 µM; TGI [47]: > 100 µM; TGI [48]: > 100 µM; TGI [49]: > 100 µM; TGI [50]: > 100 µM; TGI [51]: > 100 µM; TGI [52]: > 76.1 µM; TGI [53]: > 100 µM; TGI [54]: > 100 µM; TGI [55]: > 100 µM; TGI [56]: > 100 µM; TGI [57]: > 100 µM; TGI [58]: > 100 µM

**Q.** What does the source list for `CO[C@H]1C[C@H](O[C@H]2CC[C@]3(C=O)[C@H]4CC[C@]5(C)[C@@H](C6=CC(=O)OC6)CC[C@]5(O)[C@@H]4CC[C@]3(O)C2)O[C@H](C)[C@H]1O[C@@H]1O[C@H](CO[C@@H]2O[C@H](CO)[C@@H](O)[C@H](O)[C@H]2O)[C@@H](O)[C@H](O)[C@H]1O`?
**A.** TGI [1]: 0.12 µM; TGI [2]: 0.281 µM; TGI [3]: 0.385 µM; TGI [4]: 0.124 µM; TGI [5]: 0.467 µM; TGI [7]: 0.167 µM; TGI [8]: 0.144 µM; TGI [9]: 0.0781 µM; TGI [10]: 0.907 µM; TGI [11]: 0.0531 µM; TGI [12]: 0.0425 µM; TGI [13]: 0.21 µM; TGI [14]: 0.83 µM; TGI [16]: 0.0638 µM; TGI [17]: 0.0631 µM; TGI [18]: 0.348 µM; TGI [19]: 1.15 µM; TGI [20]: 0.188 µM; TGI [21]: 0.144 µM; TGI [22]: 0.0456 µM; TGI [23]: 0.0802 µM; TGI [24]: 1.07 µM; TGI [25]: 0.515 µM; TGI [26]: > 100 µM; TGI [27]: 0.144 µM; TGI [28]: 0.164 µM; TGI [29]: 0.312 µM; TGI [30]: 0.286 µM; TGI [31]: 0.161 µM; TGI [32]: 0.0388 µM; TGI [33]: 0.199 µM; TGI [59]: 0.2 µM; TGI [34]: 0.179 µM; TGI [35]: 0.33 µM; TGI [36]: 0.137 µM; TGI [37]: 0.825 µM; TGI [38]: 0.533 µM; TGI [39]: 0.15 µM; TGI [40]: 0.518 µM; TGI [41]: 0.367 µM; TGI [42]: > 100 µM; TGI [43]: 2.1 µM; TGI [44]: 1.27 µM; TGI [45]: 0.0413 µM; TGI [46]: 0.202 µM; TGI [47]: 0.32 µM; TGI [48]: 0.164 µM; TGI [49]: 0.677 µM; TGI [50]: 0.135 µM; TGI [51]: 0.0254 µM; TGI [52]: 0.437 µM; TGI [53]: 0.0911 µM; TGI [54]: 0.243 µM; TGI [55]: 0.0809 µM; TGI [56]: 0.419 µM; TGI [57]: 0.11 µM; TGI [58]: 0.133 µM

**Q.** Which TGI [1] does the source give for `CCC(CCCCC1CC[C@H]2CC(=O)C[C@@H]12)OC` (stereo partly drawn) here?
**A.** > 100 µM

**Q.** And the TGI [2]?
**A.** > 100 µM

**Q.** And the TGI [3]?
**A.** > 100 µM

**Q.** What about the TGI [4] of the same compound?
**A.** > 100 µM

**Q.** And the TGI [5]?
**A.** > 100 µM

**Q.** What about the TGI [6] of the same compound?
**A.** > 100 µM

**Q.** And the TGI [7]?
**A.** > 100 µM

**Q.** And the TGI [8]?
**A.** > 100 µM

**Q.** And the TGI [9]?
**A.** > 100 µM

**Q.** What about the TGI [10] of the same compound?
**A.** > 100 µM

**Q.** What about the TGI [11] of the same compound?
**A.** > 100 µM

**Q.** And the TGI [12]?
**A.** > 100 µM

**Q.** And the TGI [13]?
**A.** > 100 µM

**Q.** And the TGI [14]?
**A.** > 100 µM

**Q.** And the TGI [15]?
**A.** > 100 µM

**Q.** And the TGI [16]?
**A.** > 100 µM

**Q.** And the TGI [17]?
**A.** > 100 µM

**Q.** What about the TGI [18] of the same compound?
**A.** > 100 µM

**Q.** And the TGI [19]?
**A.** > 100 µM

**Q.** And the TGI [20]?
**A.** > 100 µM

**Q.** And the TGI [22]?
**A.** > 100 µM

**Q.** And the TGI [23]?
**A.** > 100 µM

**Q.** What about the TGI [24] of the same compound?
**A.** > 100 µM

**Q.** And the TGI [25]?
**A.** > 100 µM

**Q.** What about the TGI [26] of the same compound?
**A.** 66.1 µM

**Q.** What about the TGI [27] of the same compound?
**A.** > 100 µM

**Q.** And the TGI [28]?
**A.** > 100 µM

**Q.** What about the TGI [29] of the same compound?
**A.** > 100 µM

**Q.** What about the TGI [30] of the same compound?
**A.** > 100 µM

**Q.** What about the TGI [31] of the same compound?
**A.** > 100 µM

**Q.** What about the TGI [32] of the same compound?
**A.** > 100 µM

**Q.** And the TGI [33]?
**A.** > 100 µM

**Q.** And the TGI [59]?
**A.** > 100 µM

**Q.** And the TGI [34]?
**A.** > 100 µM

**Q.** And the TGI [35]?
**A.** > 100 µM

**Q.** And the TGI [36]?
**A.** > 100 µM

**Q.** What about the TGI [37] of the same compound?
**A.** > 100 µM

**Q.** What about the TGI [38] of the same compound?
**A.** > 100 µM

**Q.** What about the TGI [39] of the same compound?
**A.** > 100 µM

**Q.** What about the TGI [40] of the same compound?
**A.** > 100 µM

**Q.** What about the TGI [41] of the same compound?
**A.** > 100 µM

**Q.** What about the TGI [42] of the same compound?
**A.** > 100 µM

**Q.** And the TGI [43]?
**A.** > 100 µM

**Q.** And the TGI [44]?
**A.** > 100 µM

**Q.** And the TGI [45]?
**A.** > 100 µM

**Q.** And the TGI [46]?
**A.** > 100 µM

**Q.** What about the TGI [47] of the same compound?
**A.** > 100 µM

**Q.** And the TGI [48]?
**A.** > 100 µM

**Q.** What about the TGI [49] of the same compound?
**A.** > 100 µM

**Q.** What about the TGI [50] of the same compound?
**A.** > 100 µM

**Q.** And the TGI [51]?
**A.** > 100 µM

**Q.** What about the TGI [52] of the same compound?
**A.** > 100 µM

**Q.** And the TGI [53]?
**A.** > 100 µM

**Q.** What about the TGI [54] of the same compound?
**A.** > 100 µM

**Q.** And the TGI [55]?
**A.** > 100 µM

**Q.** What about the TGI [56] of the same compound?
**A.** > 100 µM

**Q.** What about the TGI [57] of the same compound?
**A.** > 100 µM

**Q.** And the TGI [58]?
**A.** > 100 µM

Reference: PubChem BioAssay (NCI)
